Measurements taken from patent US20230130103A1, “TARGETED PHARMACOLOGICAL THERAPEUTICS IN UVEAL MELANOMA” (Washington University, priority 2017, published 2023).
Starred links: 1 amine or outer side, 2 acyl side, 3 side chain; linkers in the order of their positions; H or OH if unused. Positions of bridges follow the written chain, without caps; N, C: chain ends. Non-standard residues stand in square brackets, D forms with d. Residues, ends and D or L forms follow the SMILES beside them. *: point of attachment. Leu(3R-OH,Nα-propionyl) = CCC(=O)N[C@H](C(=O)*)[C@H](O)C(C)C; X1 = CC(C)[C@@H](O[*:3])[C@H](N[*:1])C(=O)[*:2]; X2 = CC(C)[C@H](O[*:3])[C@@H](N[*:1])C(=O)[*:2]; NMeaThr = CN[C@H](C(=O)O)[C@H](C)O; dPhLac = O=C(O)[C@H](O)Cc1ccccc1; NMeA = CN[C@@H](C)C(=O)O; NMeDha = C=C(NC)C(=O)O

Biological target: T1, constitutively active Gα13 with Gβγ2 (Homo sapiens, UniProt Q14344, Q226L)
T1 construct: expressed in transfected cells; host or cells: HEK-293
T1 sequence (Q14344 1-377 Q226L): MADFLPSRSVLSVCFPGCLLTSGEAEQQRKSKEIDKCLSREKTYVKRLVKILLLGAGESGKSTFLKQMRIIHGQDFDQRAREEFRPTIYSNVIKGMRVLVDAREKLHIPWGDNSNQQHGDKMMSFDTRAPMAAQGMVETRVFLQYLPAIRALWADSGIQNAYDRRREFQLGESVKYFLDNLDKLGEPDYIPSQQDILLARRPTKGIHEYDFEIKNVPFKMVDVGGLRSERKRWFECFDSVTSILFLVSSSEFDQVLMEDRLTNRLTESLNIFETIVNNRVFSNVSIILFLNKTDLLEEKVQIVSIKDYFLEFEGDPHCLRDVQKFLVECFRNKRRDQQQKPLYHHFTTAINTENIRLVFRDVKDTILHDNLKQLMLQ
Assay: Split luciferase complementation, Gα interaction with Gβγ2
Assay type: cell-based
Details: FIG. 1A
Text: (FIG. 1A-1C) depicts the effect of FR on the activity state of Gα subunits as determined by interaction with Gβγ or RGS domains in split luciferase complementation assays. FIG. 1A Effect of FR on interaction of Gβγ2 with the indicated wild type (WT) or mutant constitutively active (Q/L) forms of Gα (q) or Gα13 (13). * p<0.01; ** p<0.05. FIG. 1B Potency of FR as a driver of interaction of Gβγ2 with wild type or mutant constitutively active Gαq. FIG. 1C Potency of FR as inhibitor of interaction of RGS2 with mutant constitutively active (Q/L) Gαq, or interaction of the RGS domain of LARG (LARG-RGS) with mutant constitutively active Gα13. FIG. 1D Potency of FR as inhibitor of signal transduction by constitutively active Gαq or Gα13 detected with an SRE(L) promoter-driven transcriptional reporter. Constitutively active Gαq (Q/L), constitutively active Gαq bearing the indicated FR binding site mutations, and constitutively Gα13 (Q/L) were studied.
To detect protein-protein interactions, a split luciferase complementation assays was used (23), as employed to study activation state-dependent interaction between Gα subunits and cognate binding partners (24).
Split luciferase assays were performed as described (24). The N-terminal portion of click beetle green luciferase (CBGN) was inserted into the αB-αC loop within the helical domain of wild type (WT) and constitutively active (Q/L) mutant forms of Gα and Gα13. Insertion of foreign proteins at this site preserves Gαfunction (40). The C-terminal region of click beetle green luciferase (CBGC) was fused to the N-termini of G131 (which was co-expressed with untagged Gγ2), RGS2, and the RGS domain of LARG, which interacts with Gal 3 only in the active GTP-bound state (41). HEK-293 cells transiently transfected with various combinations of tagged proteins were treated 18 h with vehicle(DMSO) or FR and luciferase assays were performed to measure reconstituted luciferase activity.

Structure (SMILES): C=C1C(=O)N[C@@H](C)C(=O)N(C)[C@@H](C)C(=O)N[C@H]([C@@H](OC(=O)[C@@H](NC(=O)CC)[C@H](O)C(C)C)C(C)C)C(=O)N(C)[C@@H]([C@H](C)OC)C(=O)O[C@H](C(C)C)[C@H](NC(C)=O)C(=O)O[C@H](Cc2ccccc2)C(=O)N1C [FR, [(1S)-1-[(3S,6R,9S,12S,18R,21S,22R)-21-acetamido-18-benzyl-3-[(1S)-1-methoxyethyl]-4,9,10,12,16-pentamethyl-15-methylidene-2,5,8,11,14,17,20-heptaoxo-22-propan-2-yl-1,19-dioxa-4,7,10,13,16-pentazacyclodocos-6-yl]-2-methylpropyl] (2S,3R)-3-hydroxy-4-methyl-2-(propanoylamino)pentanoate] (Ac-[X1][dPhLac][NMeDha]A[NMeA][X2](Leu(3R-OH,Nα-propionyl))[NMeaThr](Me); ester 1-C)
- effect on interaction with Gβγ2: lack of effect
